Assays:
Type in all cases: cell-based, Escherichia coli
[1] = test system: wild-type E. coli K-12 str. BW25113; assay: microbe, parasite or virus in culture; conditions: technical duplicate
Method in brief: (§1)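 Turbidity (OD600, pre-incubation subtracted) defined growth after 18 h at 37 °C in MHB II. The inoculum was diluted 1/2000 from an OD600 ~1.0 PBS suspension of an overnight LB culture. Compounds were run as duplicate twofold dilutions.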

[2] = test system: E. coli ΔtolC; assay: microbe, parasite or virus in culture; conditions: technical duplicate
Method in brief: as §1

[3] = test system: E. coli EKO-35; assay: microbe, parasite or virus in culture
Method in brief: as §1

[4] = test system: EKO-35-Pore; assay: MIC susceptibility profiling, porinated strain
Method in brief: (§2)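 Strains carry the fhuA ΔC/Δ4L pore integrated between glmS and pstS under a constitutive promoter, with pore activity checked by vancomycin susceptibility. Overnight LB cultures were adjusted in PBS pH 7.4 to OD600 ~1.0 and diluted 1/2000 into MHB II. 2-fold compound titrations were read by OD600 after 18 h at 37 °C.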

[5] = test system: ΔtolC-Pore; assay: microbe, parasite or virus in culture; conditions: technical duplicate
Method in brief: as §2

[6] = test system: wild-type (WT) K-12-Pore; assay: microbe, parasite or virus in culture; conditions: technical duplicate
Method in brief: as §2

[7] = test system: EKO-35 araC::acrEF; assay: MIC susceptibility profiling, efflux platform
Method in brief: as §1

[8] = test system: EKO-35 araC::emrKY; assay: MIC susceptibility profiling, efflux platform
Method in brief: as §1

[9] = test system: EKO-35 araC::macAB; assay: MIC susceptibility profiling, efflux platform
Method in brief: as §1

[10] = test system: EKO-35 araC::mdtEF; assay: MIC susceptibility profiling, efflux platform
Method in brief: as §1

[11] = test system: EKO-35 araC::acrB; assay: MIC susceptibility profiling, efflux platform
Method in brief: as §1

[12] = test system: EKO-35 araC::acrD; assay: MIC susceptibility profiling, efflux platform
Method in brief: as §1

[13] = test system: EKO-35 araC::mexCD (MexCD from P. aeruginosa); assay: MIC susceptibility profiling, efflux platform
Method in brief: as §1

[14] = test system: EKO-35 araC::emrAB; assay: MIC susceptibility profiling, efflux platform
Method in brief: as §1

[15] = test system: EKO-35 araC::mdtBC; assay: MIC susceptibility profiling, efflux platform
Method in brief: as §1

[16] = test system: EKO-35 araC::acrBD408A; assay: MIC susceptibility profiling, efflux platform
Method in brief: as §1

[17] = test system: EKO-35 araC::acrBD408A Pore; assay: MIC susceptibility profiling, porinated efflux platform
Method in brief: as §2

[18] = test system: EKO-35 araC::acrD Pore; assay: as above
Method in brief: as §2

[19] = test system: EKO-35 araC::emrKY Pore; assay: as above
Method in brief: as §2

[20] = Table 13A, non-porinated, technical duplicate
[21] = Table 14A, porinated, technical duplicate
[22] = Table 13B, non-porinated, technical duplicate

SMILES: N#CC(=NNc1ccc(F)c(Cl)c1)C(=O)c1ccc(Cl)cc1 [compound 15]
- Minimum inhibitory concentration (MIC), K-12 ([1]; Table 10, without pore): 320 µg/mL
- Minimum Inhibitory Concentration, K-12 ([1]; Table 13A, non-porinated): 320 µg/mL
- Minimum inhibitory concentration (MIC), ΔtolC ([2]; Table 10, without pore): 1.25 µg/mL
- Minimum Inhibitory Concentration, ΔtolC ([2]; Table 13A, non-porinated): 1.25 µg/mL
- Fold change of MICs ([3]; EKO-35 compared to EKO-35 (reference)): 1 fold
- Minimum inhibitory concentration (MIC), EKO-35 ([3]; Table 10, without pore, technical duplicate): 320 µg/mL
- Minimum Inhibitory Concentration, EKO-35 [3, 20]: 320 µg/mL
- Fold changes of MICs ([4]; EKO-35-Pore compared to EKO-35-Pore (reference)): 1 fold
- Minimum inhibitory concentration (MIC), Pore EKO-35 ([4]; Table 10, with pore, technical duplicate): 320 µg/mL
- Minimum inhibitory concentration, EKO-35-Pore [4, 21]: 320 µg/mL
- Minimum inhibitory concentration (MIC), Pore ΔtolC ([5]; Table 10, with pore): 0.625 µg/mL
- Minimum inhibitory concentration, ΔtolC-Pore ([5]; Table 14A, porinated): 0.625 µg/mL
- Minimum inhibitory concentration (MIC), Pore K-12 ([6]; Table 10, with pore): 320 µg/mL
- Minimum inhibitory concentration, K-12 (WT)-Pore ([6]; Table 14A, porinated): 320 µg/mL
- Fold change of MICs ([7]; EKO-35 araC::acrEF compared to EKO-35): 1 fold
- Minimum Inhibitory Concentration, EKO-35 araC::acrEF [7, 20]: 320 µg/mL
- Fold change of MICs ([8]; EKO-35 araC::emrKY compared to EKO-35): 1 fold
- Minimum Inhibitory Concentration, EKO-35 araC::emrKY [8, 22]: 320 µg/mL
- Fold change of MICs ([9]; EKO-35 araC::macAB compared to EKO-35): 1 fold
- Minimum Inhibitory Concentration, EKO-35 araC::macAB [9, 22]: 320 µg/mL
- Fold change of MICs ([10]; EKO-35 araC::mdtEF compared to EKO-35): 1 fold
- Minimum Inhibitory Concentration, EKO-35 araC::mdtEF [10, 20]: 320 µg/mL
- Fold change of MICs ([11]; EKO-35 araC::acrB compared to EKO-35): 1 fold
- Minimum Inhibitory Concentration, EKO-35 araC::acrB [11, 20]: 320 µg/mL
- Fold change of MICs ([12]; EKO-35 araC::acrD compared to EKO-35): 1 fold
- Minimum Inhibitory Concentration, EKO-35 araC::acrD [12, 20]: 320 µg/mL
- Fold change of MICs ([13]; EKO-35 araC::mexCD compared to EKO-35): 1 fold
- Minimum Inhibitory Concentration, EKO-35 araC::mexCD [13, 22]: 320 µg/mL
- Fold change of MICs ([14]; EKO-35 araC::emrAB compared to EKO-35): 1 fold
- Minimum Inhibitory Concentration, EKO-35 araC::emrAB [14, 22]: 320 µg/mL
- Fold change of MICs ([15]; EKO-35 araC::mdtBC compared to EKO-35): 1 fold
- Minimum Inhibitory Concentration, EKO-35 araC::mdtBC [15, 22]: 320 µg/mL
- Fold change of MICs ([16]; EKO-35 araC::acrBD408A compared to EKO-35): 1 fold
- Minimum Inhibitory Concentration, EKO-35 araC::acrBD408A [16, 22]: 320 µg/mL
- Fold changes of MICs ([17]; EKO-35 araC::acrBD408A Pore compared to EKO-35-Pore): 1 fold
- Minimum inhibitory concentration ([17]; EKO-35 araC::acrBD408A Pore, technical duplicate): 320 µg/mL
- Fold changes of MICs ([18]; EKO-35 araC::acrD Pore compared to EKO-35-Pore): 1 fold
- Minimum inhibitory concentration, EKO-35 araC::acrD Pore [18, 21]: 320 µg/mL
- Fold changes of MICs ([19]; EKO-35 araC::emrKY Pore compared to EKO-35-Pore): 1 fold
- Minimum inhibitory concentration ([19]; EKO-35 araC::emrKY Pore, technical duplicate): 320 µg/mL
